Data published in patent publication US11236069B2, “KIF18A inhibitors” (AMGEN INC., priority 2018, dated 2022).

target: Recombinant human KIF18A (1-467 His-tagged) protein (Homo sapiens (Human), UniProt Q8NI77); experiment: KIF18A Enzyme Assay: microtubule-stimulated ATPase activity (ADP-Glo); settings: read-out: KIF18A ATPase IC50; 30 nM KIF18A, 30 μg/mL pig microtubules, ATP at Km 75 μM, ADP-Glo luminescence
Sequence (Q8NI77 1-467): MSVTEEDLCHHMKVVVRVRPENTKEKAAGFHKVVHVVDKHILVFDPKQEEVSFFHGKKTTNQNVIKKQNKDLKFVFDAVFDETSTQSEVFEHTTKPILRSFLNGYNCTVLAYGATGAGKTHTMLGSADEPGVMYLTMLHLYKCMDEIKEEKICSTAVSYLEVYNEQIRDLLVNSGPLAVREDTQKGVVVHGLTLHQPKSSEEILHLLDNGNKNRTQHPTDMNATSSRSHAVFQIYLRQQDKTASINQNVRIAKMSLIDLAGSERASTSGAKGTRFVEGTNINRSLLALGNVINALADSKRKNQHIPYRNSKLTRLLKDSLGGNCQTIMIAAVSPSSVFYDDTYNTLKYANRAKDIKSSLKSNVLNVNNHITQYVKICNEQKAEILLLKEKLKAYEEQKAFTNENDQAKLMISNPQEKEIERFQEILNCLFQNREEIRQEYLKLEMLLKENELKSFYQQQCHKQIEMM
Sequence (P02550 whole entry partner): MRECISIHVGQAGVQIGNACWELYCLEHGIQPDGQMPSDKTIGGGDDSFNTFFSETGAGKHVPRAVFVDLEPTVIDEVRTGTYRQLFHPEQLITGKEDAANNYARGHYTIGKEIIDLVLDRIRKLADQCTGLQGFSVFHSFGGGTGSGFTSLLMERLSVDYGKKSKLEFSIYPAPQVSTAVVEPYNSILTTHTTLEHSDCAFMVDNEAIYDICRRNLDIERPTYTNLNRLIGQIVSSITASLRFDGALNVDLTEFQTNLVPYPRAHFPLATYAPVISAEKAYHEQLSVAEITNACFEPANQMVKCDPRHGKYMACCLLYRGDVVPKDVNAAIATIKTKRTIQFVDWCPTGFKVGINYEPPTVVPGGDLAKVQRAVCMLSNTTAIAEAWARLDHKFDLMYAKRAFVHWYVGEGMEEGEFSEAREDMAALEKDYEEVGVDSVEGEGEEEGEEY
Sequence (P02554 whole entry partner): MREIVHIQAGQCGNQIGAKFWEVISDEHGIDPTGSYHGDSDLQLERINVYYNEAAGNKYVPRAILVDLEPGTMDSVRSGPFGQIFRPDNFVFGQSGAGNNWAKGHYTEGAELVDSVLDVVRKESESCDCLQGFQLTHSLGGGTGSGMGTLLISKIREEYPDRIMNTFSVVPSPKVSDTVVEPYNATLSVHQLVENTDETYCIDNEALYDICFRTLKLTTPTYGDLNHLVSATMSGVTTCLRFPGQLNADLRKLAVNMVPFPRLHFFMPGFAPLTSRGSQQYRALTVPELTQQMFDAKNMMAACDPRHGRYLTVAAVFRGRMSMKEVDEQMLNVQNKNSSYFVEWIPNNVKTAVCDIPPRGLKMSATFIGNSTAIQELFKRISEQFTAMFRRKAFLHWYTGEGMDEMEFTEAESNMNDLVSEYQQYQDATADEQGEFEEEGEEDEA
Description: KIF18A Enzyme Assay: Microtubule-stimulated ATPase activity assay is used to measure KIF18A enzyme activity after treatment with compound. Compounds were 2-fold serially diluted in DMSO (Sigma Inc) over 22-point concentration range. […] The assay measures ADP formed from the ATPase reaction.

Going from `Cc1cc(NC(=O)c2ccc(NS(=O)(=O)CCO)cc2N2CCC3(CC2)CC3)nc(N2CCC[C@@H](O)C2)n1` [Example 11-54, (R)-4-((2-Hydroxyethyl)sulfonamido)-N-(2-(3-hydroxypiperidin-1-yl)-6-methylpyrimidin-4-yl)-2-(6-azaspiro[2.5]octan-6-yl)benzamide] to `Cc1cc(NC(=O)c2ccc(NS(=O)(=O)CCO)cc2N2CCC3(CC2)CC3)nc(N2CCC[C@H](C#N)C2)n1` [Example 11-35, (S)-N-(2-(3-Cyanopiperidin-1-yl)-6-methylpyrimidin-4-yl)-4-((2-hydroxyethyl)sulfonamido)-2-(6-azaspiro[2.5]octan-6-yl)benzamide], the IC50 falls from 74 nM to 43 nM (1.7-fold). The second is the more potent here.

`Cc1cc(NC(=O)c2ccc(NS(=O)(=O)[C@@H](C)CO)cc2N2CCC3(CC2)CC3)nc(N2CCC(F)CC2)n1` [Example 6-25-1, (S)-N-(2-(4-fluoropiperidin-1-yl)-6-methylpyrimidin-4-yl)-4-((2-hydroxy-1-methylethyl)sulfonamido)-2-(6-azaspiro[2.5]octan-6-yl)benzamide] and `Cc1cc(NC(=O)c2ccc(NS(C)(=O)=O)cc2N2CCC3(CC2)CC3)nc(N2CCC(F)CC2)n1` [Example 11-81, N-(2-(4-Fluoropiperidin-1-yl)-6-methylpyrimidin-4-yl)-4-(methylsulfonamido)-2-(6-azaspiro[2.5]octan-6-yl)benzamide] are within 1.5-fold of each other in IC50: 47 nM for the first, 60 nM for the second.

`CCS(=O)(=O)Nc1ccc(C(=O)Nc2cc(C)nc(N3CCC(F)(F)CC3)n2)c(N2CCC3(CC2)CC3)c1` [Example 6-7, N-(2-(4,4-Difluoropiperidin-1-yl)-6-methylpyrimidin-4-yl)-4-(ethylsulfonamido)-2-(6-azaspiro[2.5]octan-6-yl)benzamide] and `Cc1cc(NC(=O)c2ccc(NS(=O)(=O)C3(CO)CC3)cc2N2CCC3(CC2)CC3)nc(N2CCC(F)(F)CC2)n1` [Example 11-69] are within 1.5-fold of each other in IC50: 122 nM for the first, 99 nM for the second.

Going from `Cc1cc(NC(=O)c2ccc(N3CCOCS3(=O)=O)cc2N2CCC3(CC2)CC3)nc(N2CCC(F)(F)CC2)n1` [Example 6-9, N-(2-(4,4-Difluoropiperidin-1-yl)-6-methylpyrimidin-4-yl)-4-(3,3-dioxido-1,3,4-oxathiazinan-4-yl)-2-(6-azaspiro[2.5]octan-6-yl)benzamide] to `Cc1cc(NC(=O)c2ccc(S(=O)(=O)C3CC3)cc2N2CCC3(CC2)CC3)nc(N2CCC(F)(F)CC2)n1` [Example 14-5, 4-(Cyclopropylsulfonyl)-N-(2-(4,4-difluoropiperidin-1-yl)-6-methylpyrimidin-4-yl)-2-(6-azaspiro[2.5]octan-6-yl)benzamide], the IC50 rises from 246 nM to 826 nM (3.4-fold).

First: Cc1cc(NC(=O)c2ccc(NS(=O)(=O)CCO)cc2N2CCC3(CC2)CC3)nc(C2CC2)n1 [Example 11-3, N-(2-Cyclopropyl-6-methylpyrimidin-4-yl)-4-((2-hydroxyethyl)sulfonamido)-2-(6-azaspiro[2.5]octan-6-yl)benzamide]
Second: Cc1cc(NC(=O)c2ccc(NS(=O)(=O)CCO)cc2N2CCC3(CC2)CC3)nc(N2CC(O)(C3CC3)C2)n1 [Example 11-16, N-(2-(3-Cyclopropyl-3-hydroxyazetidin-1-yl)-6-methylpyrimidin-4-yl)-4-((2-hydroxyethyl)sulfonamido)-2-(6-azaspiro[2.5]octan-6-yl)benzamide]
The IC50 of the first is 21-fold lower: 49 nM for the first, 1010 nM for the second.

Going from `Cc1cc(NC(=O)c2ccc(NS(=O)(=O)CCO)cc2N2CCC3(CC2)CC3)nc(N2CC(C(C)(C)O)C2)n1` [Example 11-14, 4-((2-Hydroxyethyl)sulfonamido)-N-(2-(3-(2-hydroxypropan-2-yl)azetidin-1-yl)-6-methylpyrimidin-4-yl)-2-(6-azaspiro[2.5]octan-6-yl)benzamide] to `Cc1cc(NC(=O)c2ccc(NS(=O)(=O)CCO)cc2N2CCC3(CC2)CC3)nc(N2CC(C(F)(F)F)C2)n1` [Example 11-12, 4-((2-Hydroxyethyl)sulfonamido)-N-(6-methyl-2-(3-(trifluoromethyl)azetidin-1-yl)pyrimidin-4-yl)-2-(6-azaspiro[2.5]octan-6-yl)benzamide], the IC50 falls from 172 nM to 93 nM (1.8-fold).

Going from `CC[S@@](=N)(=O)c1ccc(C(=O)Nc2cc(C)nc(N3CCC(F)(F)CC3)n2)c(N2CCC3(CC2)CC3)c1` [Example 19-3, 2-(6-Azaspiro[2.5]octan-6-yl)-N-(2-(4,4-difluoro-1-pieridinyl)-6-methyl-4-pyrimidinyl)-4-(S-ethylsulfonimidoyl)benzamide] to `Cc1cc(NC(=O)c2ccc(NS(=O)(=O)C3([C@H](C)O)CC3)cc2N2CCC3(CC2)CC3)nc(N2CCC(F)(F)CC2)n1` [Example 6-31-2, (S)-N-(2-(4,4-Difluoropiperidin-1-yl)-6-methylpyrimidin-4-yl)-4-((1-(1-hydroxyethyl)cyclopropane)-1-sulfonamido)-2-(6-azaspiro[2.5]octan-6-yl)benzamide], the IC50 rises from 78 nM to 281 nM (3.6-fold). The first is the more potent here.

`Cc1cc(NC(=O)c2ccc(NS(=O)(=O)[C@@H](C)CO)cc2N2CCC3(CC2)CC3)nc(N2CCO[C@H](C)C2)n1` [Example 6-23-1, 4-(((S)-2-Hydroxy-1-methylethyl)sulfonamido)-N-(6-methyl-2-((R)-2-methylmorpholino)pyrimidin-4-yl)-2-(6-azaspiro[2.5]octan-6-yl)benzamide] and `Cc1cc(NC(=O)c2ccc(NS(=O)(=O)[C@H](C)CO)cc2N2CCC3(CC2)CC3)nc(N2CCO[C@H](C)C2)n1` [Example 6-23-2, 4-(((R)-2-Hydroxy-1-methylethyl)sulfonamido)-N-(6-methyl-2-((R)-2-methylmorpholino)pyrimidin-4-yl)-2-(6-azaspiro[2.5]octan-6-yl)benzamide] are within 1.5-fold of each other in IC50: 39 nM for the first, 37.3 nM for the second.

First: CC(C)(O)c1cc(NC(=O)c2ccc(NS(=O)(=O)CCO)cc2N2CCC3(CC2)CC3)nc(N2CCC(F)(F)CC2)n1 [Example 6-37, N-(2-(4,4-Difluoropiperidin-1-yl)-6-(2-hydroxypropan-2-yl)pyrimidin-4-yl)-4-((2-hydroxyethyl)sulfonamido)-2-(6-azaspiro[2.5]octan-6-yl)benzamide]
Second: CCc1cc(NC(=O)c2ccc(NS(=O)(=O)CCO)cc2N2CCC3(CC2)CC3)nc(N2CCC(F)(F)CC2)n1 [Example 6-38, N-(2-(4,4-Difluoropiperidin-1-yl)-6-ethylpyrimidin-4-yl)-4-((2-hydroxyethyl)sulfonamido)-2-(6-azaspiro[2.5]octan-6-yl)benzamide]
The IC50 of the first is 2.1-fold higher: 125 nM for the first, 60 nM for the second.

Going from `Cc1cc(NC(=O)c2ccc(S(=O)(=O)NC3(C)COC3)cc2N2CCC3(CC2)CC3)nc(OCCC(F)(F)F)n1` [Example 1-6, N-(6-Methyl-2-(3,3,3-trifluoropropoxy)pyrimidin-4-yl)-4-(N-(3-methyloxetan-3-yl)sulfamoyl)-2-(6-azaspiro[2.5]octan-6-yl)benzamide] to `Cc1cc(NC(=O)c2ccc(S(=O)(=O)NC3(C)COC3)cc2N2CCC3(CC2)CC3)nc(C(C)(C)O)n1` [Example 2-1, N-(2-(2-Hydroxypropan-2-yl)-6-methylpyrimidin-4-yl)-4-(N-(3-methyloxetan-3-yl)sulfamoyl)-2-(6-azaspiro[2.5]octan-6-yl)benzamide], the IC50 rises from 32 nM to 65 nM (2-fold). The first is the more potent here.

`Cc1cc(NC(=O)c2cc(F)c(NS(=O)(=O)CCO)cc2N2CCC3(CC2)CC3)nc(N2CCC(F)(F)CC2)n1` [Example 11-67, N-(2-(4,4-Difluoropiperidin-1-yl)-6-methylpyrimidin-4-yl)-5-fluoro-4-((2-hydroxyethyl)sulfonamido)-2-(6-azaspiro[2.5]octan-6-yl)benzamide] and `Cc1cc(NC(=O)c2ccc(NS(=O)(=O)CCO)cc2N2CCC3(CC2)CC3)nc(N2CCC(F)(F)C2)n1` [Example 11-30, N-(2-(3,3-Difluoropyrrolidin-1-yl)-6-methylpyrim-4-yl)-4-((2-hydroxyethyl)sulfonamido)-2-(6-azaspiro[2.5]octan-6-yl)benzamide] are within 1.5-fold of each other in IC50: 34 nM for the first, 33 nM for the second.

First: Cc1cc(NC(=O)c2ccc(NS(=O)(=O)CCO)cc2N2CCC3(CC2)CC3)nc(N2[C@H](C)COC[C@@H]2C)n1 [Example 11-48, N-(2-((3S,5R)-3,5-Dimethylmorpholino)-6-methylpyrimidin-4-yl)-4-((2-hydroxyethyl)sulfonamido)-2-(6-azaspiro[2.5]octan-6-yl)benzamide]
Second: Cc1cc(NC(=O)c2ccc(NS(=O)(=O)CCO)cc2N2CCC3(CC2)CC3)nc(N2CC3(COC3)C2)n1 [Example 11-8, 4-((2-Hydroxyethyl)sulfonamido)-N-(6-methyl-2-(2-oxa-6-azaspiro[3.3]heptan-6-yl)pyrimidin-4-yl)-2-(6-azaspiro[2.5]octan-6-yl)benzamide]
The IC50 of the first is 6.7-fold lower: 95 nM for the first, 640 nM for the second.

`Cc1cc(NC(=O)c2ccc(NS(=O)(=O)CCO)cc2N2CCC3(CC2)CC3)cc(N2CCO[C@H](C)C2)n1` [Example 11-66] and `C[C@@H]1CN(c2cc(NC(=O)c3ccc(NS(=O)(=O)CCO)cc3N3CCC4(CC3)CC4)ccn2)CCO1` [Example 11-65] are within 1.5-fold of each other in IC50: 148 nM for the first, 151 nM for the second.

`O=C(Nc1ccnc(N2CCC(F)CC2)n1)c1ccc(NS(=O)(=O)CCO)cc1N1CCC2(CC1)CC2` [Example 11-56, N-(2-(4-Fluoropiperidin-1-yl)pyrimidin-4-yl)-4-((2-hydroxyethyl)sulfonamido)-2-(6-azaspiro[2.5]octan-6-yl)benzamide] and `C[C@@H]1CN(c2nccc(NC(=O)c3ccc(NS(=O)(=O)[C@H](C)CO)cc3N3CCC4(CC3)CC4)n2)CCO1` [Example 6-24-2, 4-(((R)-2-hydroxy-1-methylethyl)sulfonamido)-N-(2-((R)-2-methylmorpholino)pyrimidin-4-yl)-2-(6-azaspiro[2.5]octan-6-yl)benzamide] are within 1.5-fold of each other in IC50: 22 nM for the first, 28 nM for the second.

Going from `Cc1cc(NC(=O)c2ccc([S@](=N)(=O)C3CC3)cc2N2CCC3(CC2)CC3)nc(N2CCO[C@H](C)C2)n1` [Example 19-7, 2-(6-Azaspiro[2.5]octan-6-yl)-4-(S-cyclopropylsulfonimidoyl)-N-(6-methy-2-((2R)-2-methyl-4-moprpholinyl)-4-pyrimidinyl)benzamide] to `Cc1cc(NC(=O)c2ccc(S(C)(=O)=O)cc2N2CCC3(CC2)CC3)nc(NCCO)n1` [Example 1-3, N-(2-((2-Hydroxyethyl)amino)-6-methylpyrimidin-4-yl)-4-(methylsulfonyl)-2-(6-azaspiro[2.5]octan-6-yl)benzamide], the IC50 rises from 195 nM to 849 nM (4.4-fold).
